{"source": "patent US4704361A", "about": "“Pharmaceutical compositions containing the cytidine monophospate of 5-acetamido-3,5-dideoxy-D-glycero-D-galactononulosaminic acid and a method for preparing said compound” (Compagnia di Ricerca Chimica S.p.A., priority 1983, dated 1987)", "key": {"LD50 in albino rats": {"experiment": "LD50 in albino rats", "conditions": "rat, in vivo, albino rats of 20±1 g"}, "rats": {"test_system": "rats", "experiment": "Open field experiment, explorative activity of rat puppies on the 21st day of life", "format": "in vivo", "procedure": "(§1) The study has been performed with 16 couples of the rats Charles River in their reproductive age, selected by uniform weight. On the third day of gestation they have been arbitrarily divided into 4 groups. […] Dietetic treatment have been continued during the entire periods of gestation and nursing.\n(§2) Between the 14th and the 21st day of the life, the puppies of the 2nd and the 4th group have been treated with 20 mg/kg of CMP-NANA (Sigma Chemical Co.) i.p., the 1st and the 3rd group have been treated with the equal volume of physiological solution.\n(§3) On the 21st day two male puppies from each group have been fixed on the holed table and for 20 minutes placed under the open field experiment. The periods related to the explorative activity have been observed and quantified. At the end of the experiment, the animals have been sacrified by decapitation, and their brains have been removed and examined for the content of the gangliosides (extractions performed by the method of G. Tettamanti et al., Biochim. Biophys. Acta 296, 160-170 (1973) as well as of the glycoproteins (extractions by the method of B. Berra et al., in Membranes in Tumor Growth, Galeotti et al., Eds., Elsevier, pp. 81-87, 1982; F. Omodeo Sale et al., Cell Mol. Biol. 27, 455-458, 1981)."}, "Cerebral gangliosides": {"test_system": "Cerebral gangliosides", "experiment": "Cerebral gangliosides content (NANA) in rats on the 21st day of life", "format": "in vivo, rat", "description": "The study has been performed with 16 couples of the rats Charles River in their reproductive age, selected by uniform weight. On the third day of gestation they have been arbitrarily divided into 4 groups. The two first groups have been fed with a semisynthetic diet that contained 10% of casein. Dietetic treatment have been continued during the entire periods of gestation and nursing.\nas §2, §3\n(§4) In both cases the content of NANA has been determined."}, "Cerebral glycoproteins": {"test_system": "Cerebral glycoproteins", "experiment": "Cerebral glycoproteins content (NANA) in rats on the 21st day of life", "format": "in vivo, rat", "procedure": "as §1, §2, §3, §4"}, "Striatal gangliosides": {"test_system": "Striatal gangliosides", "experiment": "Levels of striatal gangliosides of the rat following injuries by kainic acid", "format": "in vivo", "procedure": "Male rats, Charles River CD, body weight of 180-200 g, have been divided into 4 groups, each group having 20 animals. The first group has been classified as the control group, the second group has been treated with physiological solution, the third group has been treated with kainic acid and the fourth group has been treated with CMP-NANA (20 mg/kg/day, i.p.) and kainic acid.\nThe treatment with CMP-NANA has been started one week before the treatment with kainic acid and has been continued until the animals have been sacrified.\nThe animals have been anesthetized with pentobarbital (60 mg/kg i.p.) and then treated with kainic acid (2 μg in 1 μl of the physiological solution), that has been injected into striatum.\nThe control rats have been treated with an equal volume (1 μl) of the physiological solution.\nAfter 7 days the rats have been sacrified and the striatum has been removed. Each single determination has been performed with the pool of 5 samples. The gangliosides have been extracted and determined (as NANA content) as described previously."}, "Neuro-2a cells": {"test_system": "Neuro-2a cells", "experiment": "CMP-NANA-induced neurite formation (sprouting) in cultured cells", "format": "cell-based", "procedure": "Neuro-2a cells (American Type Culture Collection, Rockville, USA) were seeded at standard conditions (10^4 -10^6 cells/100 mm dish). Incubation time for quantification of sprouting was 24 hours. Thereafter fixation of the cells was performed by means of 3% glutaraldehyde containing buffered saline. Quantitative determination of nerve cell growth was performed with Zeiss D-7082 Micreo-Videomat.\nNeurite sprouting was used as the parameter for nerve cell differentiation. The samples fixed in formaline were stained for better contrast."}, "[1]": {"test_system": "Neuro-2a neurine neuroblastoma", "experiment": "In vitro neuronal maturation, index of maturation of neuroblastoma cells", "format": "cell-based", "conditions": "for Index of maturation (I.M.): standard media 10 ± 2, I.M. = L.P. × N.P.", "procedure": "Neuro-2a neurine neuroblastoma (American Type Culture Collection-CCL 131) was grown in the medium consisting of fecal calf serum (Irvine Scientific, Irvine, Ca.), to which non-essential amino acids, antibiotic (5-20 mg %), and bicarbonate (50-100 mg %), were added. The cells were grown routinely on corning plastic tissue-culture flasks.\nCells for assay were plated on corning plastic Petri dishes, in the medium with or without CMP-NANA. In order to examine the role of CMP-NANA on in vitro neuron maturation, it was incorporated into the culture media at the time of plating or 24 or 48 hours postplating. The mean number and length of cell processes were repeatedly determined for a minimum of 100 cells per treatment group, to provide a semiquantitative index of neuron maturation (Table 5).\nIndex of maturation (I.M.) in Table 5 is expressed as: I.M.=L.P.×N.P., where:\nL.P. 10:=the length of process to nearest 10μ\nN.P.=Total number of processes\nThe effects of the various concentrations of CMP-NANA were evaluated with high resolution Nomarski optics."}, "Storage stability": {"experiment": "Storage stability", "format": "physicochemical", "conditions": "powder, -10° C.", "procedure": "A 20 ml aliquot (containing about 8000 units of the enzyme) of the enzyme, CTP (4-5 mmol), N-acetylneuraminic acid (1 mmol) were added in portions, during 2 hours, to the solution (200 ml) of Tris-buffer, Mg^+2, and β-thio-propionic acid. The last three components were present in the concentrations 0.4, 0.04, and 0.002M, respectively. The mixture was incubated at 36°±0.2° C. for 6 hours, then diluted 8 times with water and rised slowly through a column of Dowex 1×4, bicarbonate form, 50-100 mesh (0.6 l resin/mmol of I). First washing was performed with 1 mM ammonium hydroxide, then with 3-4 vol. of a linear gradient from 0.02-2.0M triethylammonium hydrogencarbonate, pH 7.8."}, "Acid hydrolysis at pH 1": {"experiment": "Acid hydrolysis at pH 1", "format": "physicochemical", "conditions": "pH 1, 10 min, room temperature", "procedure": "[α]D =-11.8° (c=0.2, water)."}, "[2]": {"conditions": "normal and hypoproteinic diet, 20 mg/kg i.p."}}, "data": [{"smiles": "CC(=O)N[C@H]1[C@H]([C@H](O)[C@H](O)CO)O[C@](OP(=O)(O)OC[C@H]2O[C@@H](n3ccc(N)nc3=O)[C@H](O)[C@@H]2O)(C(=O)O)C[C@@H]1O", "note": "[CMP-NANA, cytidine monophosphate of 5-acetamido-3,5-dideoxy-D-glycero-D-galactononulosaminic acid]", "values": [{"measurement": "LD50", "setting": "LD50 in albino rats; ip, intraperitoneal", "value": 900, "unit": "mg/kg"}, {"measurement": "LD50", "setting": "LD50 in albino rats; po, per os", "value": 2400, "unit": "mg/kg"}, {"measurement": "Explorative activity", "setting": "rats; Group 2: 20% casein + CMP-NANA 20 mg/kg i.p., relative to 2nd group = 100% (reference), p < 0.01-0.001 vs nontreatment (Group 1: 47)", "value": 100, "unit": "%"}, {"measurement": "Explorative activity", "setting": "rats; Group 4: 10% casein + CMP-NANA 20 mg/kg i.p., relative to 2nd group = 100%, p < 0.01-0.001 vs nontreatment (Group 3: 12)", "value": 52, "unit": "%"}, {"measurement": "explorative activity (in words)", "setting": "rats; [2]", "value": "inhanced in statistically significant manner"}, {"measurement": "Cerebral gangliosides", "setting": "Cerebral gangliosides; Group 2: 20% casein + CMP-NANA 20 mg/kg i.p., relative to 2nd group = 100% (reference), p < 0.01-0.001 vs nontreatment (Group 1: 75)", "value": 100, "unit": "%"}, {"measurement": "Cerebral gangliosides", "setting": "Cerebral gangliosides; Group 4: 10% casein + CMP-NANA 20 mg/kg i.p., relative to 2nd group = 100%, p < 0.01-0.001 vs nontreatment (Group 3: 41)", "value": 68, "unit": "%"}, {"measurement": "NANA content in the cerebral gangliosides (in words)", "setting": "Cerebral gangliosides; [2]", "value": "inhanced in statistically significant manner"}, {"measurement": "Cerebral glycoproteins", "setting": "Cerebral glycoproteins; Group 2: 20% casein + CMP-NANA 20 mg/kg i.p., relative to 2nd group = 100% (reference), p < 0.01-0.001 vs nontreatment (Group 1: 79)", "value": 100, "unit": "%"}, {"measurement": "Cerebral glycoproteins", "setting": "Cerebral glycoproteins; Group 4: 10% casein + CMP-NANA 20 mg/kg i.p., relative to 2nd group = 100%, p < 0.01-0.001 vs nontreatment (Group 3: 69)", "value": 75, "unit": "%"}, {"measurement": "NANA content in the cerebral glycoproteins (in words)", "setting": "Cerebral glycoproteins; [2]", "value": "inhanced in statistically significant manner"}, {"measurement": "level of gangliosides in the striatum (in words)", "setting": "Striatal gangliosides; CMP-NANA 20 mg/kg/day i.p. with kainic acid", "value": "hindered the diminuation of the level of gangliosides in the striatum"}, {"measurement": "Striatal gangliosides (NANA content)", "setting": "Striatal gangliosides; Group 4: kainic acid (2 μg into striatum) and CMP-NANA 20 mg/kg/day i.p., relative to control = 100%", "value": 88, "unit": "%"}, {"measurement": "sprouting of the nerves (in words)", "setting": "Neuro-2a cells; 50 μg/ml", "value": "nearly doubled"}, {"measurement": "dose-response relationship for number of neurites (in words)", "setting": "Neuro-2a cells; 5-50 μg/ml, 24 hours", "value": "close dose-response relationship"}, {"measurement": "increase of sprouting above the original steady-state value", "setting": "Neuro-2a cells; 30 μ/ml (so in the source)", "value": "~50", "unit": "%"}, {"measurement": "activity at 5 µg/mL", "setting": "Neuro-2a cells; Mus musculus, N2a, 5 μg/ml, 24 hours, 0 μg/ml = 100 ± 15, read-out: Extent of sprouting", "value": "110 ± 15", "unit": "%"}, {"measurement": "activity at 10 µg/mL", "setting": "Neuro-2a cells; Mus musculus, N2a, 10 μg/ml, 24 hours, 0 μg/ml = 100 ± 15, read-out: Extent of sprouting", "value": "117 ± 20", "unit": "%"}, {"measurement": "activity at 20 µg/mL", "setting": "Neuro-2a cells; Mus musculus, N2a, 20 μg/ml, 24 hours, 0 μg/ml = 100 ± 15, read-out: Extent of sprouting", "value": "132 ± 25", "unit": "%"}, {"measurement": "activity at 30 µg/mL", "setting": "Neuro-2a cells; Mus musculus, N2a, 30 μg/ml, 24 hours, 0 μg/ml = 100 ± 15, read-out: Extent of sprouting", "value": "145 ± 30", "unit": "%"}, {"measurement": "activity at 50 µg/mL", "setting": "Neuro-2a cells; Mus musculus, N2a, 50 μg/ml, 24 hours, 0 μg/ml = 100 ± 15, read-out: Extent of sprouting", "value": "178 ± 35", "unit": "%"}, {"measurement": "change of I.M. versus standard media (in words)", "setting": "[1]; 2 μg/ml", "value": "doubled"}, {"measurement": "change of I.M. versus standard media (in words)", "setting": "[1]; 20 μg/ml", "value": "ten time higher"}, {"measurement": "Index of maturation (I.M.)", "setting": "[1]; SM + 1 μg/ml", "value": "20 ± 5"}, {"measurement": "Index of maturation (I.M.)", "setting": "[1]; SM + 5 μg/ml", "value": "45 ± 5"}, {"measurement": "Index of maturation (I.M.)", "setting": "[1]; SM + 10 μg/ml", "value": "68 ± 10"}, {"measurement": "Index of maturation (I.M.)", "setting": "[1]; SM + 20 μg/ml", "value": "92 ± 10"}, {"measurement": "storage stability", "setting": "Storage stability", "value": "at least one year"}, {"measurement": "hydrolysis in acid", "setting": "Acid hydrolysis at pH 1", "value": "affording CMP and N-acetylneuraminic acid (1.0:1.0 mol)"}]}]}
